Data reported in PubChem BioAssay AID248 (DTP/NCI, 2004).
“And” between values parts separate entries of the source, which are not always exact repeats. Identical values can stand only once. Inconclusive results and toxic doses are left out.

System: L1210 leukemia ip in BDF1 mice, survival T/C
Experiment: NCI In Vivo Anticancer Drug Screen. Data for tumor model L1210 Leukemia (intraperitoneal) in B6D2F1 (BDF1) mice
Conditions: endpoint: mean survival time, higher = longer survival
Procedure, shortened: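 Transplanted-tumor mice were given test agent; controls received vehicle only. Survival readings from the two groups were divided (treated over control).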

[1] = dose: 100.0 mg/kg/injection, schedule: Q01DX009 (ip), vehicle: saline
[2] = dose: 200.0 mg/kg/injection, schedule: Q01DX009 (ip), vehicle: saline
[3] = dose: 400.0 mg/kg/injection, schedule: Q01DX009 (ip), vehicle: saline
[4] = dose: 75.0 mg/kg/injection, schedule: Q01DX001 (ip), vehicle: saline
[5] = dose: 150.0 mg/kg/injection, schedule: Q01DX001 (ip), vehicle: saline
[6] = dose: 100.0 mg/kg/injection, schedule: Q04DX002 (ip), vehicle: saline with Tween-80
[7] = dose: 200.0 mg/kg/injection, schedule: Q04DX002 (ip), vehicle: saline with Tween-80
[8] = dose: 400.0 mg/kg/injection, schedule: Q04DX002 (ip), vehicle: saline with Tween-80
[9] = dose: 50.0 mg/kg/injection, schedule: Q01DX009 (ip), vehicle: saline with Tween-80
[10] = dose: 50.0 mg/kg/injection, schedule: Q04DX003 (ip), vehicle: saline with Tween-80
[11] = dose: 100.0 mg/kg/injection, schedule: Q01DX009 (ip), vehicle: saline with Tween-80
[12] = dose: 100.0 mg/kg/injection, schedule: Q04DX003 (ip), vehicle: saline with Tween-80
[13] = dose: 100.0 mg/kg/injection, schedule: Q04DX002 (ip), vehicle: Klucel (hydroxypropylcellulose) (HPC)
[14] = dose: 200.0 mg/kg/injection, schedule: Q04DX002 (ip), vehicle: Klucel (hydroxypropylcellulose) (HPC)
[15] = dose: 400.0 mg/kg/injection, schedule: Q04DX002 (ip), vehicle: Klucel (hydroxypropylcellulose) (HPC)
[16] = dose: 100.0 mg/kg/injection, schedule: Q01DX001 (ip), vehicle: saline
[17] = dose: 200.0 mg/kg/injection, schedule: Q01DX001 (ip), vehicle: saline
[18] = dose: 400.0 mg/kg/injection, schedule: Q01DX001 (ip), vehicle: saline
[19] = dose: 100.0 mg/kg/injection, schedule: Q01DX009 (ip), vehicle: Klucel (hydroxypropylcellulose) (HPC)
[20] = dose: 100.0 mg/kg/injection, schedule: Q04DX003 (ip), vehicle: Klucel (hydroxypropylcellulose) (HPC)
[21] = dose: 200.0 mg/kg/injection, schedule: Q01DX009 (ip), vehicle: Klucel (hydroxypropylcellulose) (HPC)
[22] = dose: 200.0 mg/kg/injection, schedule: Q04DX003 (ip), vehicle: Klucel (hydroxypropylcellulose) (HPC)
[23] = dose: 400.0 mg/kg/injection, schedule: Q01DX009 (ip), vehicle: Klucel (hydroxypropylcellulose) (HPC)
[24] = dose: 400.0 mg/kg/injection, schedule: Q04DX003 (ip), vehicle: Klucel (hydroxypropylcellulose) (HPC)
[25] = dose: 100.0 mg/kg/injection, schedule: Q01DX001 (ip), vehicle: other
[26] = dose: 200.0 mg/kg/injection, schedule: Q01DX001 (ip), vehicle: other
[27] = dose: 400.0 mg/kg/injection, schedule: Q01DX001 (ip), vehicle: other
[28] = dose: 200.0 mg/kg/injection, schedule: Q01DX009 (ip), vehicle: saline with Tween-80
[29] = dose: 200.0 mg/kg/injection, schedule: Q04DX003 (ip), vehicle: saline with Tween-80
[30] = dose: 400.0 mg/kg/injection, schedule: Q04DX003 (ip), vehicle: saline with Tween-80

## c1ccc(CC(Cc2ccccc2)=[N+]2CCCC2)cc1
[1]
  T/C: 91 % of control
dose: 100.0 mg/kg/injection, schedule: Q04DX003 (ip), vehicle: saline
  T/C: 104 % of control
[2]
  T/C: 92 % of control
dose: 200.0 mg/kg/injection, schedule: Q04DX003 (ip), vehicle: saline
  T/C: 98 % of control
[3]
  T/C: 101 % of control
dose: 400.0 mg/kg/injection, schedule: Q04DX003 (ip), vehicle: saline
  T/C: 105 % of control

## CN(CCO)C1=C(N2CC2)C(=O)C(N(C)CCO)=C(N2CC2)C1=O
dose: 0.12 mg/kg/injection, schedule: Q01DX001 (ip), vehicle: saline
  T/C: 103 % of control
dose: 0.12 mg/kg/injection, schedule: Q01DX009 (ip), vehicle: saline
  T/C: 104 % of control and 105 % of control
dose: 0.24 mg/kg/injection, schedule: Q04DX003 (ip), vehicle: saline
  T/C: 119 % of control
dose: 0.25 mg/kg/injection, schedule: Q01DX001 (ip), vehicle: saline
  T/C: 100 % of control
dose: 0.25 mg/kg/injection, schedule: Q01DX009 (ip), vehicle: saline
  T/C: 121 % of control
dose: 0.5 mg/kg/injection, schedule: Q01DX001 (ip), vehicle: saline
  T/C: 112 % of control
dose: 0.55 mg/kg/injection, schedule: Q04DX003 (ip), vehicle: saline
  T/C: 122 % of control
dose: 1.0 mg/kg/injection, schedule: Q01DX009 (ip), vehicle: saline
  T/C: 184 % of control and 214 % of control
dose: 1.5 mg/kg/injection, schedule: Q04DX003 (ip), vehicle: saline
  T/C: 111 % of control
dose: 3.0 mg/kg/injection, schedule: Q04DX003 (ip), vehicle: saline
  T/C: 97 % of control

## NC1CC=CCC1c1ccc2c(c1)OCO2 (stereo not given)
[4]
  T/C: 100 % of control
[5]
  T/C: 92 % of control

## O=C(O)CCc1ccc(-c2cccc([N+](=O)[O-])c2)o1
[6]
  T/C: 102 % of control
[7]
  T/C: 105 % of control
[8]
  T/C: 98 % of control

## CCOC(=O)NC(C)(C)Cc1ccccc1
dose: 25.0 mg/kg/injection, schedule: Q01DX009 (ip), vehicle: saline with Tween-80
  T/C: 91 % of control
dose: 25.0 mg/kg/injection, schedule: Q04DX003 (ip), vehicle: saline with Tween-80
  T/C: 101 % of control
[9]
  T/C: 98 % of control
[10]
  T/C: 106 % of control
[11]
  T/C: 96 % of control
[12]
  T/C: 97 % of control and 103 % of control

## COc1ccc(OC)c(NCCN2C(=O)c3ccccc3C2=O)c1
[13]
  T/C: 95 % of control
[14]
  T/C: 100 % of control
[15]
  T/C: 100 % of control

## Nc1nc(=S)c2ncn(CN3CCCCC3)c2[nH]1
dose: 1.3 mg/kg/injection, schedule: Q01DX Z (ip), vehicle: carboxymethylcellulose (CMC)
  T/C: 112 % of control
dose: 2.0 mg/kg/injection, schedule: Q01DX Z (ip), vehicle: carboxymethylcellulose (CMC)
  T/C: 123 % of control
dose: 3.0 mg/kg/injection, schedule: Q01DX Z (ip), vehicle: carboxymethylcellulose (CMC)
  T/C: 154 % of control
dose: 3.0 mg/kg/injection, schedule: Q01DX Z (ip), vehicle: saline
  T/C: 155 % of control
dose: 4.5 mg/kg/injection, schedule: Q01DX Z (ip), vehicle: carboxymethylcellulose (CMC)
  T/C: 151 % of control
dose: 4.5 mg/kg/injection, schedule: Q01DX Z (ip), vehicle: saline
  T/C: 166 % of control
dose: 7.0 mg/kg/injection, schedule: Q01DX Z (ip), vehicle: saline
  T/C: 156 % of control
dose: 10.0 mg/kg/injection, schedule: Q01DX Z (ip), vehicle: saline
  T/C: 156 % of control

## CCCCCCC(CO)CO
[16]
  T/C: 89 % of control
[17]
  T/C: 91 % of control
[18]
  T/C: 94 % of control

## O=C(c1ccccc1)C(Br)C(c1ccccc1)c1ccccc1 (stereo not given)
[19]
  T/C: 94 % of control
[20]
  T/C: 104 % of control
[21]
  T/C: 94 % of control
[22]
  T/C: 104 % of control
[23]
  T/C: 100 % of control
[24]
  T/C: 98 % of control

## Cc1cc(C(=O)NN)c(C#N)c(=O)[nH]1
[25]
  T/C: 93 % of control
[26]
  T/C: 95 % of control
[27]
  T/C: 97 % of control

## Cc1ccc(Cl)cc1NC(=O)Nc1ccc(N(C)C)cc1
dose: 100.0 mg/kg/injection, schedule: Q01DX001 (ip), vehicle: saline with Tween-80
  T/C: 92 % of control
[11]
  T/C: 87 % of control and 90 % of control
[6]
  T/C: 95 % of control and 90 % of control
[12]
  T/C: 92 % of control
dose: 200.0 mg/kg/injection, schedule: Q01DX001 (ip), vehicle: saline with Tween-80
  T/C: 87 % of control
[28]
  T/C: 89 % of control and 90 % of control
[7]
  T/C: 98 % of control and 87 % of control
[29]
  T/C: 92 % of control
dose: 400.0 mg/kg/injection, schedule: Q01DX001 (ip), vehicle: saline with Tween-80
  T/C: 87 % of control
dose: 400.0 mg/kg/injection, schedule: Q01DX009 (ip), vehicle: saline with Tween-80
  T/C: 97 % of control and 91 % of control
[8]
  T/C: 87 % of control
[30]
  T/C: 89 % of control

## Oc1ccc2ccccc2c1/C=N/N=c1\[nH][nH]/c(=N\N=C\c2c(O)ccc3ccccc23)c2ccccc12
dose: 50.0 mg/kg/injection, schedule: Q01DX001 (ip), vehicle: carboxymethylcellulose (CMC)
  T/C: 95 % of control
dose: 100.0 mg/kg/injection, schedule: Q01DX001 (ip), vehicle: carboxymethylcellulose (CMC)
  T/C: 93 % of control
dose: 200.0 mg/kg/injection, schedule: Q01DX001 (ip), vehicle: carboxymethylcellulose (CMC)
  T/C: 98 % of control
dose: 400.0 mg/kg/injection, schedule: Q01DX001 (ip), vehicle: carboxymethylcellulose (CMC)
  T/C: 87 % of control

## O=C1CSC(=S)N1c1ccc(Cl)c(Cl)c1
[10]
  T/C: 96 % of control
[12]
  T/C: 101 % of control
[29]
  T/C: 104 % of control

## COC1OC2COc3ccccc3OC2C2C1N2C(N)=O (stereo not given)
[13]
  T/C: 104 % of control
[14]
  T/C: 96 % of control
[15]
  T/C: 100 % of control

## Cc1cc(C)c(N2C(=O)CC(Sc3ccccc3N)C2=O)c(C)c1 (stereo not given)
[12]
  T/C: 105 % of control
[29]
  T/C: 109 % of control
[30]
  T/C: 98 % of control

## COc1ccc(Cl)cc1NC(=O)Nc1cc(C)ccc1Cl
[19]
  T/C: 101 % of control
[20]
  T/C: 90 % of control
[21]
  T/C: 110 % of control
[22]
  T/C: 95 % of control
[23]
  T/C: 116 % of control
[24]
  T/C: 95 % of control

## CC(=O)NCC(C)(C)c1ccccc1
[16]
  T/C: 96 % of control
[1]
  T/C: 102 % of control
[17]
  T/C: 102 % of control
[2]
  T/C: 100 % of control
[18]
  T/C: 110 % of control
[3]
  T/C: 102 % of control

## CC(=O)c1nnn(-c2ccccc2)n1
[25]
  T/C: 95 % of control and 109 % of control
[26]
  T/C: 95 % of control and 101 % of control
[27]
  T/C: 101 % of control

## COc1ccc(OC)c(/C=C(/C)[N+](=O)[O-])c1
[9]
  T/C: 109 % of control
[11]
  T/C: 109 % of control
[20]
  T/C: 97 % of control
[28]
  T/C: 109 % of control
[22]
  T/C: 108 % of control

## NC(N)=NNC(=O)C(=O)O
[12]
  T/C: 95 % of control
[29]
  T/C: 91 % of control
[30]
  T/C: 93 % of control

## CCc1ccc(NC(=O)C(c2ccccc2)c2ccccc2)cc1
dose: 50.0 mg/kg/injection, schedule: Q04DX003 (ip), vehicle: Klucel (hydroxypropylcellulose) (HPC)
  T/C: 101 % of control
[19]
  T/C: 92 % of control
[20]
  T/C: 100 % of control
[21]
  T/C: 89 % of control
[22]
  T/C: 93 % of control
[23]
  T/C: 89 % of control
[24]
  T/C: 93 % of control

## ClCC[N+]12CC[N+](CCCl)(CC1)C2
[4]
  T/C: 105 % of control
[5]
  T/C: 120 % of control

## O=C(c1cccc([N+](=O)[O-])c1)c1sc2ccccc2c1O
dose: 50.0 mg/kg/injection, schedule: Q04DX002 (ip), vehicle: Klucel (hydroxypropylcellulose) (HPC)
  T/C: 90 % of control
[13]
  T/C: 93 % of control
[14]
  T/C: 88 % of control
